Results on one molecule are retold here after ChEMBL document CHEMBL4831544, “Discovery of IHMT-EZH2-115 as a Potent and Selective Enhancer of Zeste Homolog 2 (EZH2) Inhibitor for the Treatment of B-Cell Lymphomas” (J Med Chem, 2021).

The nature of series [1]: AUC (0 to infinity) in mouse at 1 mg/kg, iv measured up to 24 hrs by LC-MS/MS analysis. The series is classed as ADME, organism-based. On the set-up: route intravenous, dose 1 mg/kg, time <=24. To be noted: in vivo.
A short description of series [2]: Antiproliferative activity against human WSUDLCL2 cells assessed as inhibition of cell growth measured after 6 days by CellTiter-Glo luminescent assay. The series is classed as functional. As to conditions: WSUDLCL2, 144 h, time 6 day. In general terms: Cellular ATP, detected with luciferase, serves as a proxy for viable cell number.
Series [3] can be described thus: Apparent volume of distribution in rat at 10 mg/kg, po. As to conditions: in vivo. The series is classed as ADME, organism-based.
Series [4] deals with KARPAS-422. Put plainly: Antitumor activity against human KARPAS-422 cells harboring EZH2 Y641N mutant xenografted in NCG mouse assessed as change in tumor weight at 50 mg/kg, po BID via gavage measured after 28 days (reference value: 2.14 g). The series is classed as functional. To be noted: time 28 day.
For series [5], the target named is F-box only protein 11 (Homo sapiens) (UniProt Q86XK2). The series can be described thus: Inhibition of PRMT9 (unknown origin) at 10 uM using SAM as substrate measured up to 960 mins by AlphaScreen microplate reader assay relative to control. To be noted: time min <=960. For orientation: In Alpha technology, singlet oxygen from a donor bead excites a nearby acceptor bead.

For series [6], the target named is N-lysine methyltransferase SMYD2 (Homo sapiens) (UniProt Q9NRG4). The series can be described thus: Inhibition of SMYD2 (unknown origin) at 10 uM using SAM as substrate measured up to 960 mins by AlphaScreen microplate reader assay relative to control. To be noted: time min <=960.
The next series deals with SU-DHL-6. Put plainly: Antiproliferative activity against human SU-DHL-6 cells harboring EZH2 Y641N mutant assessed as inhibition of cell growth measured after 6 days by CellTiter-Glo luminescent assay. The series is classed as functional. As to conditions: SU-DHL-6, 144 h, time 6 day.
A short description of series [7]: Half life in mouse at 10 mg/kg, po measured up to 24 hrs by LC-MS/MS analysis. The series is classed as ADME, organism-based. As to conditions: in vivo.
The nature of series [8]: AUC (0 to infinity) in rat at 10 mg/kg, po. Details: time infinity, route oral, dose 10 mg/kg. As to conditions: in vivo. The series is classed as ADME, organism-based.
In series [9] the test system is KARPAS-422. Put plainly: Antiproliferative activity against human KARPAS-422 cells harboring EZH2 Y641N mutant assessed as inhibition of cell growth measured after 6 days by CellTiter-Glo luminescent assay. The series is classed as functional. As to conditions: KARPAS-422, 144 h, time 6 day.
In series [10] the target is Histone-lysine N-methyltransferase SMYD3 (Homo sapiens) (UniProt Q9H7B4). Put plainly: Inhibition of SMYD3 (unknown origin) at 10 uM using SAM as substrate measured up to 960 mins by AlphaScreen microplate reader assay relative to control. To be noted: time min <=960.
Series [11] has as its target Histone-lysine N-methyltransferase EZH1 (Homo sapiens) (UniProt Q92800). Put plainly: Inhibition of EZH1 (unknown origin) at 10 uM using SAM as substrate measured up to 960 mins by AlphaScreen microplate reader assay relative to control. To be noted: time min <=960.
In series [12] the target is Protein arginine N-methyltransferase 5 (Homo sapiens) (UniProt O14744). The series can be described thus: Inhibition of PRMT5 (unknown origin) at 10 uM using SAM as substrate measured up to 960 mins by AlphaScreen microplate reader assay relative to control. To be noted: time min <=960.
A short description of series [13]: AUC (0 to t) in mouse at 10 mg/kg, po measured up to 24 hrs by LC-MS/MS analysis. The series is classed as ADME, organism-based. On the set-up: route oral, dose 10 mg/kg, time <=24. To be noted: in vivo.

Chain of Histone-lysine N-methyltransferase EZH1 (Homo sapiens) (Q92800 whole entry): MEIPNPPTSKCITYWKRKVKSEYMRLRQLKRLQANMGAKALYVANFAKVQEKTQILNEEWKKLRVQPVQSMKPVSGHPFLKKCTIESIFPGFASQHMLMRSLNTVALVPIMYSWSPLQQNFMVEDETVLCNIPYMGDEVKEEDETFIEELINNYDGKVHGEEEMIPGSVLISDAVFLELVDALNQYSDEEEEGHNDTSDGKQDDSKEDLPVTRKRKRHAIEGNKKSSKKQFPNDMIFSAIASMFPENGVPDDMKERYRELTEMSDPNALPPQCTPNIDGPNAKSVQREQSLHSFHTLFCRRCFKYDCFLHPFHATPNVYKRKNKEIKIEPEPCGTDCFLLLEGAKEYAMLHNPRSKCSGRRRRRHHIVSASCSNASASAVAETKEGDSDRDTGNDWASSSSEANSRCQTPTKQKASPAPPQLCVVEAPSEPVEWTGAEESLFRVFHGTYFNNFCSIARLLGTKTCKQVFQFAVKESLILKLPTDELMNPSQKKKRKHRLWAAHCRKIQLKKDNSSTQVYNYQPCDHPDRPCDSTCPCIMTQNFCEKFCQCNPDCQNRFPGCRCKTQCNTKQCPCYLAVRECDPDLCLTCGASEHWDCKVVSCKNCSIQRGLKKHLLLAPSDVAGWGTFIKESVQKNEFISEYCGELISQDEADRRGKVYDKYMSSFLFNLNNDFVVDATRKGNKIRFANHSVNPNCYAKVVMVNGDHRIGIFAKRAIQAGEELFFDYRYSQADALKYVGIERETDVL
Chain of Histone-lysine N-methyltransferase SMYD3 (Homo sapiens) (Q9H7B4 whole entry): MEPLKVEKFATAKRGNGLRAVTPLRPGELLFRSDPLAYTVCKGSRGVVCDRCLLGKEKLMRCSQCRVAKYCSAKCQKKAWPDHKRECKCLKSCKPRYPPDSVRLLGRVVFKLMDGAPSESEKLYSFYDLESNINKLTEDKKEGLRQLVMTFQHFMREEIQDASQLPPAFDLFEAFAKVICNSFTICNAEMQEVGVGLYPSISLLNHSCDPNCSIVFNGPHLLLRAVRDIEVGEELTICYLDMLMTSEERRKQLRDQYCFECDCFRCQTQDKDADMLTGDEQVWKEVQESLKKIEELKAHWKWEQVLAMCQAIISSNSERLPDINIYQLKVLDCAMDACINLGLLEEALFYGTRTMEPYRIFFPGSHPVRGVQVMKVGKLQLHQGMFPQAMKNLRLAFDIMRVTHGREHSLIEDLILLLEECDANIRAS
Chain of Protein arginine N-methyltransferase 5 (Homo sapiens) (O14744 whole entry): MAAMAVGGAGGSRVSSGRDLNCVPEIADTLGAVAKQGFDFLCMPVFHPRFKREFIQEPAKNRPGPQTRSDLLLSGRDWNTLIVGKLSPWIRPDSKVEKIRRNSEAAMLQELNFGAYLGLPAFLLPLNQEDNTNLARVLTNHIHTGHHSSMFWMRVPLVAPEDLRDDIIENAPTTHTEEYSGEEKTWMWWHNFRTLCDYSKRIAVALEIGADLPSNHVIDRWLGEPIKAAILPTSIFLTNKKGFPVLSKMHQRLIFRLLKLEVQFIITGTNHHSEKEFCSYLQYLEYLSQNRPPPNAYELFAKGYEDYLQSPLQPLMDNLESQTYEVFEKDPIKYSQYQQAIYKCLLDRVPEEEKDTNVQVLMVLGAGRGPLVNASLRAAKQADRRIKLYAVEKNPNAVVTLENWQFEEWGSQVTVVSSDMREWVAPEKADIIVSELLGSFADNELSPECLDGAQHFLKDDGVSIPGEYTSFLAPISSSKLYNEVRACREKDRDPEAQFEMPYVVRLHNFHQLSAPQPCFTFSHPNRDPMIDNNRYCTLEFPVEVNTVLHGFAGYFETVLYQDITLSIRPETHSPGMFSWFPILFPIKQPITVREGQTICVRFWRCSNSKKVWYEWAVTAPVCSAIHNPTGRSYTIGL
Chain of F-box only protein 11 (Homo sapiens) (Q86XK2 whole entry): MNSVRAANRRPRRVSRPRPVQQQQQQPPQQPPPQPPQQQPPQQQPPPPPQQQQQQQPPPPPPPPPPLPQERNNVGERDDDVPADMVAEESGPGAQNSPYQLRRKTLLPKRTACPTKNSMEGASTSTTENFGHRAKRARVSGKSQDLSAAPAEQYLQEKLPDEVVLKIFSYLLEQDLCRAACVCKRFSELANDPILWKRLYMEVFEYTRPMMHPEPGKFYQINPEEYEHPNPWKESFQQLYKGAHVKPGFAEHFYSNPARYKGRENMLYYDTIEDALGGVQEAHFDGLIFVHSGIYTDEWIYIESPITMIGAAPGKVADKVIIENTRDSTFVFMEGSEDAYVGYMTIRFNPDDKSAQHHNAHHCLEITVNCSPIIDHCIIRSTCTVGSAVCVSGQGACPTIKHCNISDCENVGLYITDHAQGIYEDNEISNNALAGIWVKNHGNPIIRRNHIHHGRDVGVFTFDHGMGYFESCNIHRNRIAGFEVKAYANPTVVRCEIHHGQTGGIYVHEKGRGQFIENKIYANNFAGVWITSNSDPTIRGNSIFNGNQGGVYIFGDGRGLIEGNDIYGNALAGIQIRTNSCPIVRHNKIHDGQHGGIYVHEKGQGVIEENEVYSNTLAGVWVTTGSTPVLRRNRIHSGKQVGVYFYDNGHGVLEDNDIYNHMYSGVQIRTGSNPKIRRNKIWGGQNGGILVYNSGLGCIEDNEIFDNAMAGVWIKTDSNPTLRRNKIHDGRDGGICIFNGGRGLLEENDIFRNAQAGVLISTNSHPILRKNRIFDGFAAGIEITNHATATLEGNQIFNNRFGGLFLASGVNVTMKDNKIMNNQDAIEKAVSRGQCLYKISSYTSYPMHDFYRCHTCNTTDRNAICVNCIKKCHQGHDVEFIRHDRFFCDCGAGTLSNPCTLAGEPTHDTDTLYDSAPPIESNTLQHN
Chain of N-lysine methyltransferase SMYD2 (Homo sapiens) (Q9NRG4 whole entry): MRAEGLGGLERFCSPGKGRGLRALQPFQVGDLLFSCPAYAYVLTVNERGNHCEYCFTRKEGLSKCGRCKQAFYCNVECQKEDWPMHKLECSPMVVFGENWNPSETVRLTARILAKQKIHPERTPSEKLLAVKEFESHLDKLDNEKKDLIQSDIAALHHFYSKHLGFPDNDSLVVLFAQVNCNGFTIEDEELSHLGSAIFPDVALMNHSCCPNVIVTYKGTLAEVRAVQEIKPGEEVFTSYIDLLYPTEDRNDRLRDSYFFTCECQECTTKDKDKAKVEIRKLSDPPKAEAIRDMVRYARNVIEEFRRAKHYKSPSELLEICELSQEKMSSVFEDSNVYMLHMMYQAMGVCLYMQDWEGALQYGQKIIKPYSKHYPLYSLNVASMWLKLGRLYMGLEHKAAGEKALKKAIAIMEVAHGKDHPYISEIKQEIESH

By AUC(0-inf) is commonly meant total exposure, with the tail of the curve extrapolated. A low value points to low exposure. For orientation: GI50 means the concentration at which growth is held to half of that of the control. As a reminder, the inhibition is how much of the control response was suppressed. As usually defined, the AUC(0-t) is the area under the concentration-time curve up to a stated or last time point. As to `CCN(C(=O)C1CC1)c1cc(-c2ccc(N3CCN(CC4CC4)CC3)nc2C)cc(C(=O)NCc2c(C)cc(C)[nH]c2=O)c1C`, the values for the AUC(0-inf) in series [1] and in [8] were 372 ng·h/mL and 604 ng·h/mL, respectively. The GI50 came out at 200 nM in series [2], 1100 nM in the series on SU-DHL-6 and 50 nM in the series with KARPAS-422 [9]. Further, the Vz in series [3] was 36.559 L/kg. In addition, in the series on KARPAS-422 [4], the Activity is recorded as 1.17 g. Besides, the inhibition was 9% in series [5]; 0% in series [6]; 16% in [10]; 92% in series [11]; 0% in series [12]. In addition, the t1/2 in [7] turned out to be 1.3 h. Moreover, the AUC(0-t) at 24 h in series [13] was 1000 ng·h/mL.
